Structures can show the parent of a compound that is named as a salt. Blank lines part the entries; values can stand above or below the compound they belong to.
Legend:
recombinant human MMP-1 = biological target: T1, recombinant human MMP-1 (Homo sapiens, UniProt P03956); test: In vitro metalloprotease inhibition, fluorogenic MCA peptide substrate; format: biochemical; details: recombinant human MMP-1, APMA activated; room temperature; substrate 4 μM; 1 percent DMSO
T1 construct: made in house; host or cells: transfected HT-1080 cells (provided by Dr. Howard Welgus, Washington University)
T1 sequence (P03956 100-469): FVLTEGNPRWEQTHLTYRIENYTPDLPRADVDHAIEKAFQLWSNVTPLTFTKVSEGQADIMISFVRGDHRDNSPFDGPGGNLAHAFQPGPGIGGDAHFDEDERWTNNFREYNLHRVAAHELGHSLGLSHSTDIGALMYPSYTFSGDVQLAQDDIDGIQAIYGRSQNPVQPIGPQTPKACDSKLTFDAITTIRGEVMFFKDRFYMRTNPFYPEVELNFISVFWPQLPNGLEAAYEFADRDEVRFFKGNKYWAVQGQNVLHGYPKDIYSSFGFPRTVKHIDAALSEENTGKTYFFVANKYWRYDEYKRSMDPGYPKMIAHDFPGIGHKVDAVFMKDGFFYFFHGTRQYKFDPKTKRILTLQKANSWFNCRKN
Experimental: (§1) Several of the compounds prepared in the manner described in the previous Examples were assayed for activity by an in vitro assay. Following the procedures of Knight et al., FEBS Lett. 296(3):263 (1992). Briefly, 4-aminophenylmercuric acetate (APMA) or trypsin activated MMPs were incubated with various concentrations of the inhibitor compound at room temperature for 5 minutes.
(§2) More specifically, recombinant human MMP-13 and MMP-1 enzymes were prepared in laboratories of the assignee. MMP-13 was expressed in baculovirus as a proenzyme, and purified first over a heparin agarose column and then over a chelating zinc chloride column. The proenzyme was activated by APMA for use in the assay. MMP-1 expressed in transfected HT-1080 cells was provided by Dr. Howard Welgus of Washington University, St. Louis, Mo. The enzyme was also activated using APMA and was then purified over a hydroxamic acid column.
(§3) The enzyme substrate is a methoxycoumarin-containing polypeptide having the following sequence:
(§4) MCA-ProLeuGlyLeuDpaAlaArgNH^2, wherein MCA is methoxycoumarin and Dpa is 3-(2,4-dinitrophenyl)-L-2,3-diaminopropionyl alanine. This substrate is commercially available from Baychem as product M-1895.
(§5) The buffer used for assays contained 100 mM Tris-HCl, 100 mM NaCl, 10 mM CaCl2 and 0.05 percent polyethyleneglycol (23) lauryl ether at a pH value of 7.5. Assays were carried out at room temperature, and dimethyl sulfoxide (DMSO) at a final concentration of 1 percent was used to dissolve inhibitor compound.
(§6) The assayed inhibitor compound in DMSO/buffer solution was compared to an equal amount of DMSO/buffer with no inhibitor as control using Microfluor™ White Plates (Dynatech). The inhibitor or control solution was maintained in the plate for 10 minutes and the substrate was added to provide a final concentration of 4 μM.
(§7) In the absence of inhibitor activity, a fluorogenic peptide was cleaved at the gly-leu peptide bond, separating the highly fluorogenic peptide from a 2,4-dinitrophenyl quencher, resulting in an increase of fluorescence intensity (excitation at 328 nm/emission at 415 nm). Inhibition was measured as a reduction in fluorescent intensity as a function of inhibitor concentration, using a Perkin Elmer L550 plate reader. The IC50 values were calculated from those values. The results are set forth in the Inhibition Table below, reported in terms of IC50.

recombinant human MMP-13 = biological target: T2, recombinant human MMP-13 (Homo sapiens, UniProt P45452); test: as above; format: biochemical; details: recombinant human MMP-13, APMA activated; room temperature; substrate 4 μM; 1 percent DMSO
T2 construct: made in house
Experimental: as §1, §2, §3, §4, §5, §6, §7

[1] = system: solid tumor cancers (colorectal, pancreatic, ovarian, prostate); details: cited from earlier work

Structure (SMILES): Cc1ccc(Sc2ccc(S(=O)(=O)N(CCN3CCOCC3)[C@@H](C(=O)NO)C(C)C)cc2)cc1 [Example 2e, N-hydroxy-3-methyl-2R-[[[4-[(4-methylphenyl)-thio]phenyl]sulfonyl][2-(4-morpholinyl)ethyl]-amino]-butanamide, Monohydrochloride]
IC50 (recombinant human MMP-1): 2000 nM
IC50 (recombinant human MMP-13): 0.5 nM

Structure (SMILES): O=C(CN(CCN1CCOCC1)S(=O)(=O)c1ccc(SC2CCCCC2)cc1)NO [Example 5f, [[[4-(Cyclohexylthio)phenyl]sulphonyl][2-(4-morpholinyl)ethyl]amino]-N-hydroxyacetamide]
IC50 (recombinant human MMP-1): > 10000 nM
IC50 (recombinant human MMP-13): 1.6 nM

Structure (SMILES): CC(C)[C@H](C(=O)NO)N(CCN1CCOCC1)S(=O)(=O)c1ccc(Sc2ccccc2)cc1 [Example 7f, N-hydroxy-3-methyl-2R-[[(4-phenylthio)-phenyl]-sulfonyl]-[2-(4-morpholinyl)-ethyl]amino]-butanamide, Monohydrochloride]
IC50 (recombinant human MMP-1): 560 nM
IC50 (recombinant human MMP-13): 0.3 nM

Structure (SMILES): CNC(=O)[C@@H](NC(=O)[C@H](CC(C)C)[C@H](O)C(=O)NO)C(C)(C)C [marimastat]
rise of cancer-specific antigens used as surrogate markers for biological activity ([1]; Phase I/II, patients with advanced, treatment-refractory solid tumor cancers): dose-related reduction
most common drug-related toxicity ([1]; clinical trials, patients): musculoskeletal pain and stiffness

The next lines start with the values.

IC50 (recombinant human MMP-1): 1500 nM
IC50 (recombinant human MMP-13): 1.9 nM
Structure (SMILES): Cc1cccc(Sc2ccc(S(=O)(=O)N(CCN3CCOCC3)[C@@H](C(=O)NO)C(C)C)cc2)c1 [Example 1g, N-hydroxy-3-methyl-2R-[[[4-[(3-methylphenyl)thio]phenyl]sulfonyl]-[2-(4-morpholinyl)-ethyl]amino]-butanamide, Monohydrochloride]

IC50 (recombinant human MMP-1): 1800 nM
IC50 (recombinant human MMP-13): 0.5 nM
Structure (SMILES): C[C@H](C(=O)NO)N(CCN1CCOCC1)S(=O)(=O)c1ccc(Sc2ccccc2)cc1 [Example 3g, N-hydroxy-2R-[[2-(4-morpholinyl)ethyl][[4-(phenylthio)phenyl]sulfonyl]amino]propanamide]

IC50 (recombinant human MMP-1): > 10000 nM
IC50 (recombinant human MMP-13): 0.1 nM
Structure (SMILES): Cc1ccc(Sc2ccc(S(=O)(=O)N(CCN3CCOCC3)[C@H](C)C(=O)NO)cc2)cc1 [Example 4f, N-hydroxy-2R-[[2-(4-morpholinyl)ethyl][[4-[(4-methylphenyl)thio]phenyl]sulfonyl]-amino]-propanamide, Monohydrochloride]

IC50 (recombinant human MMP-1): 4000 nM
IC50 (recombinant human MMP-13): 0.1 nM
Structure (SMILES): O=C(CN(CCN1CCOCC1)S(=O)(=O)c1ccc(Sc2ccccc2)cc1)NO [Example 6e, 2-[[[4-(phenylthio)phenyl]sulphonyl][2-(4-morpholinyl)ethyl]amino]-N-hydroxyacetamide, Hydrochloride]

IC50 (recombinant human MMP-1): 500 nM
IC50 (recombinant human MMP-13): 1 nM
Structure (SMILES): CC(C)[C@H](C(=O)NO)N(CCN1CCCCC1)S(=O)(=O)c1ccc(Sc2ccccc2)cc1 [Example 8d, N-hydroxy-3-methyl-2R-[[(4-phenylthio)-phenyl]-sulfonyl]-[2-(1-piperidinyl)-ethyl]amino]-butanamide, Monohydrochloride]

Reference: US20040034071A1, “Thioaryl sulfonamide hydroxamic acid compounds” (priority 1999, published 2004)
